Data as given in US20250255867A1 (Kadmon Corporation, LLC, priority 2022, published 2025).

Experiments:
Format in all cases: in vivo, human
subjects with cGVHD [1] = test: Example 2: 7-day LSS summary score; conditions: for Clinically significant improvement from baseline (LSS), Overall: decrease ≥7 points in LSS score, mITT population
Procedure: (§1) All responses were assessed by the study site investigators.

patients with cGVHD [2] = test: Example 1: Lee cGVHD Symptom Scale (LSS)
Procedure: All responses were assessed by the investigators.
QOL assessment. […] Thirty-five percent of all patients (37% of responders and 32% of nonresponders) reported a clinically meaningful improvement in LSS score on consecutive assessments.
Change From Baseline in Overall Score on Lee cGvHD Symptom Scale at Specified Time Points. Lee cGVHD symptom scale, a patient-reported symptom scale used to measure symptom burden and has 7 subscales (Skin, Eyes and Mouth, Breathing, Eating and Digestion, Muscles and Joints, Energy, and Mental and Emotional) with ratings as follows: 0—Not at all, 1—Slightly, 2—Moderately, 3—Quite a bit, 4—Extremely, with lower values representing better outcome. Score for each subscale was normalized to a score ranged from 0 to 100, where higher score-worse symptoms. An overall score was calculated as average of these 7 subscales. EOT visit was performed within 3 days after the participant's last dose of study drug. Baseline value was defined as valid and last non-missing value obtained within 28 days prior to participant receiving first study medication. […] Analysis was performed on mITT population. Here, ‘number analyzed’=participants with available data for each specified category. Here, ‘0’ in the number analyzed field signifies that none of the participants were available for the analysis at the specified time points.

subjects with cGVHD [3] = test: Example 2: corticosteroid and other immunosuppressant reduction/discontinuation
Procedure: as §1

subjects with BOS = test: Example 3: FEV1 evaluation in BOS
Procedure: Patients with BOS were identified as: 1) % predicted forced expiratory volume in 1 second (% FEV1) of £79% at enrollment, and 2) clinician attribution of lung disease due to cGVHD.
In Example 1, lung function assessments were conducted at baseline and on Day 1 of each cycle for patients with suspected of known lung involvement. In Example 2, lung function assessments were conducted at baseline and at the time of response assessments: Day 1 of cycles 2-5 and then on Day 1 of every other cycle thereafter.

patients with cGVHD [4] = test: Example 1: time to next therapy, failure-free survival, overall survival
Procedure: Time to next therapy (TTNT). The TTNT was defined as the time (in months) from first treatment to the time of new systemic cGVHD treatment. TTNT was censored by last response assessment or long term follow up assessment, whichever was earlier. Kaplan-Meier survival method was used for the analysis. […] Analysis was performed on mITT population.
Failure-free survival was defined as the time (in months) from first dose of study drug to either the start of another new systemic treatment for cGVHD, relapse of the underlying disease or death. If no such events happened, FFS was censored by last response assessment or long term follow up assessment, whichever was the latest and available. Kaplan-Meier survival method was used for the analysis. Analysis was performed on mITT population.
Overall survival was defined as the time (in months) from first dose of study drug to the death due to any reason. If there was no death, OS was censored by last visit, last long term follow-up, or study cutoff date, whichever was the latest. Kaplan-Meier survival method was used for the analysis.

[5] = 200 mg daily (n = 66), mITT population
[6] = 200 mg twice daily (n = 66), mITT population
[7] = Total (N = 132), mITT population

Which results are given for `CC(C)NC(=O)COc1cccc(-c2nc(Nc3ccc4[nH]ncc4c3)c3ccccc3n2)c1` [Belumosudil, 2-{3-[4-(1H-indazol-5-ylamino)-2-quinazolinyl]phenoxy}-N-(propan-2-yl) acetamide]?
Clinically meaningful improvement in 7-day LSS summary score (subjects with cGVHD [1]; 200 mg daily, nonresponders): 29%; Clinically meaningful improvement in 7-day LSS summary score (subjects with cGVHD [1]; 200 mg daily, responders): 69%; Clinically meaningful improvement in 7-day LSS summary score (subjects with cGVHD [1]; 200 mg twice daily, nonresponders): 33%; Clinically meaningful improvement in 7-day LSS summary score (subjects with cGVHD [1]; 200 mg twice daily, responders): 71%; Clinically significant improvement from baseline (LSS), Overall (subjects with cGVHD [1]; 200 mg daily (n = 66)): 39 (59) n (%); Clinically significant improvement from baseline (LSS), Overall (subjects with cGVHD [1]; 200 mg twice daily (n = 66)): 41 (62) n (%); Clinically significant improvement (LSS), nonresponder (patients with cGVHD [2]; Cohort 1 200 mg QD): 1/6 (17, 0.4 to %; Clinically significant improvement (LSS), responder (patients with cGVHD [2]; Cohort 1 200 mg QD): 8/11 (73, 39 to %; Clinically significant improvement (LSS), overall (patients with cGVHD [2]; Cohort 1 200 mg QD, decrease ≥7 points): 9 (53, 28 to 77) %; Clinically significant improvement (LSS), nonresponder (patients with cGVHD [2]; Cohort 2 200 mg BID): 4/5 (80, 28 to %; Clinically significant improvement (LSS), overall (patients with cGVHD [2]; Cohort 2 200 mg BID): 7 (44, 20 to 70) %; Clinically significant improvement (LSS), responder (patients with cGVHD [2]; Cohort 2 200 mg BID): 3/11 (27, 6 to %; Clinically significant improvement (LSS), nonresponder (patients with cGVHD [2]; Cohort 3 400 mg QD): 2/8 (25, 3 to %; Clinically significant improvement (LSS), overall (patients with cGVHD [2]; Cohort 3 400 mg QD): 11 (52, 30 to %; Clinically significant improvement (LSS), responder (patients with cGVHD [2]; Cohort 3 400 mg QD): 9/13 (69, 39 to %; Clinically significant improvement (LSS), nonresponder (patients with cGVHD [2]; Total): 7/19 (37, 16 to %; Clinically significant improvement (LSS), responder (patients with cGVHD [2]; Total): 20/35 (57, 39 to %; Clinically significant improvement (LSS), overall (patients with cGVHD [2]; Total N=54, listed as KD025): 27 (50, 36 to %; Clinically significant improvement (LSS), overall (patients with cGVHD [2]; Total N=54, listed as belumosudil): 50%; Mean change in CS dose from baseline, Nonresponder (subjects with cGVHD [3]; 200 mg daily): −22%; Mean change in CS dose from baseline, Responder (subjects with cGVHD [3]; 200 mg daily): −49%; CS discontinuation (subjects with cGVHD [3]; [5]): 13 (20) n (%); Mean change in CS dose from baseline, Overall (subjects with cGVHD [3]; [5]): −43%; Median CS reduction from baseline to greatest reduction (subjects with cGVHD [3]; [5]): 38%; Proportion with CS reduction (subjects with cGVHD [3]; [5]): 42 (64) n (%); Mean change in CS dose from baseline, Nonresponder (subjects with cGVHD [3]; 200 mg twice daily): −10%; Mean change in CS dose from baseline, Responder (subjects with cGVHD [3]; 200 mg twice daily): −58%; Mean change in CS dose from baseline, Overall (subjects with cGVHD [3]; [6]): −48%; Median CS reduction from baseline to greatest reduction (subjects with cGVHD [3]; [6]): 50%; Mean change in CS dose from baseline, Nonresponder (subjects with cGVHD [3]; Total): −16%; Mean change in CS dose from baseline, Responder (subjects with cGVHD [3]; Total): −54%; Mean change in CS dose from baseline, Overall (subjects with cGVHD [3]; [7]): −45%; Median CS reduction from baseline to greatest reduction (subjects with cGVHD [3]; [7]): 50%; Subjects who discontinued CNI therapy (subjects with cGVHD [3]; in vivo): 22%; Subjects who discontinued mycophenolate mofetil (subjects with cGVHD [3]; in vivo): 21%; Subjects who discontinued sirolimus (subjects with cGVHD [3]; in vivo): 20%; Mean corticosteroid dose reduction (subjects with cGVHD [3]; mITT): 45%; Mean corticosteroid dose reduction (subjects with cGVHD [3]; responders): 54%; Subjects with ^3 5% absolute improvement in % FEV1 from baseline (subjects with BOS; 59 subjects): 39%; Subjects with ^3 10% absolute improvement in % FEV1 from baseline (subjects with BOS; 59 subjects): 22%; Subjects with at least a 200 mL improvement in FEV1 from baseline (subjects with BOS; Example 2 subjects only): 36%; Subjects with ^3 5% absolute improvement in % FEV1 (subjects with BOS; baseline NIH lung score 1): 57%; Subjects with ^3 5% absolute improvement in % FEV1 (subjects with BOS; baseline NIH lung score 2): 13%; Subjects with ^3 5% absolute improvement in % FEV1 (subjects with BOS; baseline NIH lung score 3): 50%; Subjects with at least a 200 mL improvement in FEV1 (subjects with BOS; baseline lung score 1): 41%; Subjects with at least a 200 mL improvement in FEV1 (subjects with BOS; baseline lung score 2): 31%; Subjects with 200 mL improvement in FEV1 (subjects with BOS; non-responders): 19%; Subjects with ^3 5% absolute improvement in % FEV1 (subjects with BOS; non-responders): 18%; Subjects with 200 mL improvement in FEV1 (subjects with BOS; responders by NIH criteria): 66%; Subjects with ^3 5% absolute improvement in % FEV1 (subjects with BOS; responders by NIH criteria): 84%; FFS rate at 6 months (patients with cGVHD [4]): 76%; FFS rate at 12 months (patients with cGVHD [4]): 47%
